Key:
glomerulonephritis = assay: Glomerulonephritis (nephrotoxic serum), albuminuria; assay type: in vivo, rats; settings: 100 μg/kg per injection, 3 times per day
Protocol: Male Sprague-Dawley rats (weight 194-248 g) were immunized by subcutaneous injection of 1 mg normal rabbit IgG (Sigma Chemical Co.) in Freund's complete adjuvant (Sigma Chemical Co.). EX-2 was administered 3 times per day (100 μg/kg per injection) throughout the duration of the experiment. Seven days later, the rats were injected with 1.5 ml of nephrotoxic serum iv via dorsal penile vein. Urine, plasma, and serum were collected before injection of nephrotoxic serum at 4, 6, 24, 48, and 96 hr thereafter. […] Albuminuria was quantified by immunoelectrophoresis.

disuse deconditioning = assay: Disuse deconditioning (tail suspension) in rats; assay type: in vivo; settings: 1 or 5 μg/kg IP twice daily
Protocol: Adult male Sprague-Dawley rats (355-365 g) were used in this study. Animals were housed individually in standard rat cages and were acclimated on a treadmill for 4 days. The next day, a baseline tail bleed was performed, followed by a maximal treadmill stress test the day after. The day following the stress test, the animals were divided into the appropriate treatment and control groups and the animals were suspended by their tails in suspension cages, which simulates weightlessness and, therefore, deconditions the animals. Another group of control animals was placed in standard rat cages with grated flooring similar to that utilized in the suspension cages. All animals were housed one per cage and supplied with food and water ad libitum. Body weights and food consumptions were measured daily. Animals received twice daily IP injections of 1 μg/kg or 5 μg/kg body weight of EX-2 (treated), or 1 ml/kg body weight of saline (control). On day 10, all animals were stress tested on the treadmill until they reached exhaustion. Data on maximum VO2 and running time were collected and compared to pre-suspension results. On day 14, all animals were sacrificed, and blood, tissues, and organs were collected for further analysis. All procedures and tests were performed blind to avoid researcher subjectivity. Statistical significance (p<0.05) between groups was evaluated by ANOVA with Student-Newman-Keuls test for multiple comparisons. All data are reported as the mean ± standard error (SE).
All of the animals were subjected to the stress tests, which measured exercise time and maximal VO2. As well, levels of the oxidative enzyme soleus citrate synthase and tibia bone density were measured.
Soleus citrate synthase was attenuated by 50%.

[1] = test system: LPS-induced PMN infiltration in lungs; assay: Adult respiratory distress syndrome: LPS-induced PMN count in broncho-alveolar lavage; assay type: in vivo, rats; settings: 100 μg/kg IP; broncho-alveolar lavage 6 hr after intratracheal LPS
Protocol: These experiments were performed using a modification of the methods described by Ulich et al., Am. J. Pathol. 141:61-68 (1992) and by Wheelden et al., Lab. Animals 26:29-37 (1992), each of which is incorporated herein by reference. Male Harlan Sprague-Dawley rats were anesthetized using a mixture of 70 mg/kg ketamine and 6 mg/kg rompun injected IP. A 2-3 cm incision was made in the neck of each anesthetized rat and its trachea was exposed by blunt dissection of the surrounding soft tissue. The rats were suspended on a near vertical slab and intratracheal injections were performed by inserting into the exposed trachea, at a point 1 cm posterior to the larynx, a 25G×1/2 inch needle attached to a 1 cc syringe.
Each rat received 0.5 ml/kg of saline or 0.5 ml/kg of 10 mg/ml (5 mg/kg) LPS endotoxin via slow intratracheal administration. Immediately following administration of the LPS endotoxin, rats were injected IP with 1 ml/kg of either saline (control) or saline containing various concentrations of EX-2 (treated). The rats were maintained in the elevated position for 1-2 min to facilitate distribution of the LPS and saline into the lung. The incisions were closed and the rats were allowed to recover. […]
The total polymorphonuclear leukocytes (PMN; neutrophits) in the broncho-alveolar lavage fluid were counted in the EX-2-treated rats and compared with the number in the control rats.

LPS-induced fever = assay: LPS-induced temperature increase (fever); assay type: in vivo, rats; settings: 6 hr following LPS injection
Protocol: Male Wistar rats (45-75 days old) were placed in a temperature controlled room held at 26° C., which is thermoneutral for the normal body temperature of rats, and were maintained in the room with free access to food and water for 24 hr prior to testing. On the morning of the study, rats were marked for identification and weighed. The temperature of each rat was determined by placing the animal in a regulatory cage designed to minimize stress and inserting a temperature probe (YSI probe #402) 3-5 cm into the animal's rectum. The temperature was recorded 15 sec after the reading stabilized. Measurements were repeated 1 hr later to establish a baseline temperature for each rat.
After the baseline temperatures were established, rats were injected IP with saline, IL-1β or LPS endotoxin. Rats then were injected IP with either saline (control) or various concentrations of EX-2, EX-3, or EX-4 (treated). The temperature of the rats was measured every hr for 6 hr and the inhibition by EX-2, EX-3, or EX-4 of the rise in temperature due to IL-1β or LPS was determined.
In addition, treatment with 50 or 150 μg/kg EX-2 inhibited LPS-induced fever by 45% or 52%, respectively, when measured 6 hr following LPS injection. Furthermore, treatment with 150 μg/kg EX-3 or EX-4 inhibited LPS-induced fever by 57% and 52%, respectively (Table II).

Interleukin-6 (IL-6) = assay: Reduction of LPS-induced IL-6 levels in mice; assay type: in vivo; settings: 300 μg/mouse; LPS treated Balb/c mice
Protocol: Balb/c mice were grouped and treated as described in Example III, above. Blood samples were obtained from the orbital sinus at various times up to six hr and serum was collected and diluted as described above. A 100 μl aliquot was assayed for IL-6 levels using an IL-6-specific ELISA by a modification of the method of Starnes etal., J. Immunol. 145:4185-4194 (1990), which is incorporated herein by reference.
The mean (+/- SEM) IL-6 level in six mice from each group was determined and the percent reduction in IL-6 was calculated.

[2] = suspended rats, stress test day 10

Substance: Ac-Nle-Gln-His-(D)Phe-Arg-(D)Trp-Gly-NH2 [EX-2]
- % Reduction, Glomerulonephritis, Urine Albumin (mg/day) (glomerulonephritis): 62%
- % Attenuation of suspension-induced decrease, Soleus Citrate Synthase (disuse deconditioning; 14 days suspension): 50%
- % Attenuation of suspension-induced decrease, Tibia Bone Density (disuse deconditioning; 14 days suspension): 50%
- % Attenuation of suspension-induced decrease, Exercise Time (disuse deconditioning; [2]): 44%
- % Attenuation of suspension-induced decrease, Maximal VO2 (disuse deconditioning; [2]): 80%
- Reduction in LPS-induced PMN Count [1]: 58%
- Reduction in LPS-induced Fever (LPS-induced fever; 50 μg/kg IP): 45%
- Reduction in LPS-induced Fever (LPS-induced fever; 150 μg/kg IP): 52%
- Reduction in IL-6 levels (Interleukin-6 (IL-6)): 60%

From patent publication US5726156A, “Cytokine regulatory agents and methods of use in pathologies and conditions associated with altered cytokine levels” (Trega Biosciences, Inc., priority 1995, dated 1998)
